Assay results: article PMC7722354, “7-Substituted 2-Nitro-5,6-dihydroimidazo[2,1-b][1,3]oxazines: Novel Antitubercular Agents Lead to a New Preclinical Candidate for Visceral Leishmaniasis” (Journal of Medicinal Chemistry, 2017)
Values after ≈ are worked out from the molar mass of the structure shown.

What was measured:
Leishmania donovani = assay: L. don amastigote mouse macrophage-based luciferase assay (CDRI); type: cell-based; settings: in mouse macrophages, single test (CDRI)
Leishmania infantum = assay: L. inf growth inhibition in mouse macrophages (LMPH); type: cell-based; settings: Macrophage, mean of at least two determinations
Trypanosoma cruzi = assay: T. cruzi growth inhibition on MRC-5 cells (LMPH); type: cell-based; settings: MRC5
[1] = test system: human lung fibroblasts (MRC-5 cells); assay: cytotoxicity toward MRC-5 cells (LMPH); type: cell-based; settings: MRC5
M. tb, strain H37Rv [2] = assay: MABA minimum inhibitory concentration assay (aerobic); type: cell-based, Mycobacterium tuberculosis
M. tb, strain H37Rv [3] = assay: LORA minimum inhibitory concentration assay (hypoxic); type: cell-based; settings: Mycobacterium tuberculosis
[4] = Mycobacterium tuberculosis, H37RV, aerobic, read-out: MIC MABA
[5] = Mycobacterium tuberculosis, H37RV, read-out: MIC MABA, aerobic

CC1(COc2ccc(-c3ccc(F)cc3F)nc2)CCn2cc([N+](=O)[O-])nc2O1 (centres unmarked) [compound 92]
IC50 (Leishmania donovani): 310 nM
IC50 (Leishmania infantum): 170 nM
IC50 (Trypanosoma cruzi): 270 nM
IC50 [1]: > 64000 nM
MIC (M. tb, strain H37Rv [2]; [4]): 0.4 µM (≈ 0.161 µg/mL)
MIC (M. tb, strain H37Rv [3]): 4.9 µM (≈ 1.97 µg/mL)

O=[N+]([O-])c1cn2c(n1)OC(COc1ccc(-c3ccc(OC(F)(F)F)cc3)nc1)CC2 (centres unmarked) [compound 93]
IC50 (Leishmania donovani): 50 nM
MIC (M. tb, strain H37Rv [2]; [5]): 0.02 to 0.04 µM (≈ 0.00873 to 0.0175 µg/mL)
MIC (M. tb, strain H37Rv [2]; aerobic, read-out: MIC MABA): 0.032 µM (≈ 0.014 µg/mL)
MIC (M. tb, strain H37Rv [3]): 0.86 µM (≈ 0.375 µg/mL)

O=[N+]([O-])c1cn2c(n1)O[C@@H](COc1ccc(-c3ccc(OC(F)(F)F)cc3)nc1)CC2 [compound 94]
MIC (M. tb, strain H37Rv [2]; [5]): 0.02 to 0.04 µM (≈ 0.00873 to 0.0175 µg/mL)
MIC (M. tb, strain H37Rv [2]; aerobic, read-out: MIC MABA): 0.024 µM (≈ 0.0105 µg/mL)
MIC (M. tb, strain H37Rv [3]): 1.5 µM (≈ 0.655 µg/mL)

O=[N+]([O-])c1cn2c(n1)O[C@H](COc1ccc(-c3ccc(OC(F)(F)F)cc3)nc1)CC2 [compound 95]
MIC (M. tb, strain H37Rv [2]; [5]): 0.34 µM (≈ 0.148 µg/mL)
MIC (M. tb, strain H37Rv [3]): 1.6 µM (≈ 0.698 µg/mL)

CC1(COc2ccc(-c3ccc(OC(F)(F)F)cc3)nc2)CCn2cc([N+](=O)[O-])nc2O1 (centres unmarked) [compound 96]
IC50 (Leishmania donovani): 650 nM
IC50 (Leishmania infantum): 4000 nM
IC50 (Trypanosoma cruzi): 250 nM
IC50 [1]: > 64000 nM
MIC (M. tb, strain H37Rv [2]; [4]): 0.05 µM (≈ 0.0225 µg/mL)
MIC (M. tb, strain H37Rv [3]): 0.88 µM (≈ 0.396 µg/mL)

CC1(COc2cccc(-c3ccc(F)cc3)n2)CCn2cc([N+](=O)[O-])nc2O1 (centres unmarked) [compound 101]
IC50 (Leishmania infantum): 180 nM
IC50 (Trypanosoma cruzi): 350 nM
IC50 [1]: > 64000 nM
MIC (M. tb, strain H37Rv [2]; [4]): 0.94 µM (≈ 0.361 µg/mL)
MIC (M. tb, strain H37Rv [3]): 5 µM (≈ 1.92 µg/mL)

O=[N+]([O-])c1cn2c(n1)OC(COc1cccc(-c3ccc(F)cc3F)n1)CC2 (centres unmarked) [compound 102]
IC50 (Leishmania donovani): 250 nM
IC50 (Leishmania infantum): 4000 nM
IC50 (Trypanosoma cruzi): 230 nM
IC50 [1]: > 64000 nM
MIC (M. tb, strain H37Rv [2]; [5]): > 128 µM
MIC (M. tb, strain H37Rv [3]): > 128 µM

CC1(COc2cccc(-c3ccc(F)cc3F)n2)CCn2cc([N+](=O)[O-])nc2O1 (centres unmarked) [compound 103]
IC50 (Leishmania infantum): 240 nM
IC50 (Trypanosoma cruzi): 220 nM
IC50 [1]: > 64000 nM
MIC (M. tb, strain H37Rv [2]; [4]): 0.69 µM (≈ 0.278 µg/mL)
MIC (M. tb, strain H37Rv [3]): 4.8 µM (≈ 1.93 µg/mL)

O=[N+]([O-])c1cn2c(n1)OC(COc1ccc(-c3ccc(F)cn3)cn1)CC2 (centres unmarked) [compound 105]
IC50 (Leishmania donovani): 60 nM
IC50 (Leishmania infantum): 50000 nM
IC50 (Trypanosoma cruzi): 340 nM
IC50 [1]: > 64000 nM
MIC (M. tb, strain H37Rv [2]; [4]): 0.15 µM (≈ 0.0557 µg/mL)
MIC (M. tb, strain H37Rv [3]): 11 µM (≈ 4.08 µg/mL)

O=[N+]([O-])c1cn2c(n1)OC(COc1ccc(-c3ccc(F)nc3)cn1)CC2 (centres unmarked) [compound 107]
IC50 (Leishmania donovani): 270 nM
MIC (M. tb, strain H37Rv [2]; [5]): 0.074 µM (≈ 0.0275 µg/mL)
MIC (M. tb, strain H37Rv [3]): 15 µM (≈ 5.57 µg/mL)

CC1(COc2ccc(-c3ccc(F)nc3)cn2)CCn2cc([N+](=O)[O-])nc2O1 (centres unmarked) [compound 108]
IC50 (Leishmania donovani): 220 nM
MIC (M. tb, strain H37Rv [2]; [5]): 1.9 µM (≈ 0.732 µg/mL)
MIC (M. tb, strain H37Rv [3]): 6.2 µM (≈ 2.39 µg/mL)

CC1(COc2ccc(-c3ccc(F)nc3F)cn2)CCn2cc([N+](=O)[O-])nc2O1 (centres unmarked) [compound 110]
IC50 (Leishmania infantum): 200 nM
IC50 (Trypanosoma cruzi): 430 nM
IC50 [1]: > 64000 nM
MIC (M. tb, strain H37Rv [2]; [4]): 1 µM (≈ 0.403 µg/mL)
MIC (M. tb, strain H37Rv [3]): 6.6 µM (≈ 2.66 µg/mL)

O=[N+]([O-])c1cn2c(n1)OC(COc1ccc(-c3ccc(C(F)(F)F)nc3)cn1)CC2 (centres unmarked) [compound 111]
IC50 (Leishmania donovani): 130 nM
MIC (M. tb, strain H37Rv [2]; [5]): 0.09 µM (≈ 0.0379 µg/mL)
MIC (M. tb, strain H37Rv [3]): 2.5 µM (≈ 1.05 µg/mL)

O=[N+]([O-])c1cn2c(n1)OC(COc1ccc(-c3ccc(F)nc3)nc1)CC2 (centres unmarked) [compound 112]
IC50 (Leishmania donovani): 90 nM
MIC (M. tb, strain H37Rv [2]; [5]): 2.3 µM (≈ 0.854 µg/mL)
MIC (M. tb, strain H37Rv [3]): 21 µM (≈ 7.8 µg/mL)

CC1(COc2ccc(-c3ccc(F)nc3)nc2)CCn2cc([N+](=O)[O-])nc2O1 (centres unmarked) [compound 113]
IC50 (Leishmania donovani): 90 nM
MIC (M. tb, strain H37Rv [2]; [5]): 2.7 µM (≈ 1.04 µg/mL)
MIC (M. tb, strain H37Rv [3]): 43 µM (≈ 16.6 µg/mL)

O=[N+]([O-])c1cn2c(n1)OC(COc1ccc(-c3ccc(C(F)(F)F)nc3)nc1)CC2 (centres unmarked) [compound 116]
IC50 (Leishmania donovani): 70 nM
MIC (M. tb, strain H37Rv [2]; [5]): 0.12 µM (≈ 0.0506 µg/mL)
MIC (M. tb, strain H37Rv [3]): 58 µM (≈ 24.4 µg/mL)

CC1(COc2cccc(-c3ccc(F)nc3)n2)CCn2cc([N+](=O)[O-])nc2O1 (centres unmarked) [compound 118]
IC50 (Leishmania infantum): 1100 nM
IC50 (Trypanosoma cruzi): 520 nM
IC50 [1]: > 64000 nM
MIC (M. tb, strain H37Rv [2]; [4]): 11 µM (≈ 4.24 µg/mL)
MIC (M. tb, strain H37Rv [3]): 7.8 µM (≈ 3.01 µg/mL)

CC1(COc2cccc(-c3ccc(F)nc3F)n2)CCn2cc([N+](=O)[O-])nc2O1 (centres unmarked) [compound 120]
IC50 (Leishmania infantum): 590 nM
IC50 (Trypanosoma cruzi): 490 nM
IC50 [1]: > 64000 nM
MIC (M. tb, strain H37Rv [2]; [4]): 9.3 µM (≈ 3.75 µg/mL)
MIC (M. tb, strain H37Rv [3]): 7.9 µM (≈ 3.19 µg/mL)

O=[N+]([O-])c1cn2c(n1)OC(CN1CCN(c3ccc(F)cc3)CC1)CC2 (centres unmarked) [compound 142, 7-{[4-(4-Fluorophenyl)piperazin-1-yl]methyl}-2-nitro-6,7-dihydro-5H-imidazo[2,1-b][1,3]oxazine]
IC50 (Leishmania donovani): 190 nM
MIC (M. tb, strain H37Rv [2]; [5]): 1.8 µM (≈ 0.65 µg/mL)
MIC (M. tb, strain H37Rv [3]): 9.9 µM (≈ 3.58 µg/mL)

O=[N+]([O-])c1cn2c(n1)OC(CN1CCC(Oc3ccc(F)cc3)CC1)CC2 (centres unmarked) [compound 152]
IC50 (Leishmania donovani): 450 nM
MIC (M. tb, strain H37Rv [2]; [5]): 2 µM (≈ 0.753 µg/mL)
MIC (M. tb, strain H37Rv [3]): 22 µM (≈ 8.28 µg/mL)

O=[N+]([O-])c1cn2c(n1)OC(COC1CCN(c3ccc(F)cc3)CC1)CC2 (centres unmarked) [compound 170]
MIC (M. tb, strain H37Rv [2]; [5]): 0.78 µM (≈ 0.294 µg/mL)
MIC (M. tb, strain H37Rv [3]): 20 µM (≈ 7.53 µg/mL)

CC1(COC2CCN(c3ccc(F)cc3)CC2)CCn2cc([N+](=O)[O-])nc2O1 (centres unmarked) [compound 178]
MIC (M. tb, strain H37Rv [2]; [5]): 0.37 µM (≈ 0.144 µg/mL)
MIC (M. tb, strain H37Rv [3]): 19 µM (≈ 7.42 µg/mL)
